Among the data in US7402606B2, “Derivatives of 1-(oxoaminoacetyl) pentylcarbamate as cathepsin K inhibitors for the treatment of bone loss” (SmithKline Beecham Corporation, priority 2002, dated 2008) are IC50 values, retold here.

Common to all, as to assay type: biochemical
One experiment addresses human cathepsin H (Homo sapiens, UniProt P09668). The experiment in a line: Cathepsin H inhibition assay, enzyme from human liver tissue, L-Arg-β-naphthalamide. The following applies: Table 2, human cathepsin H; read-out: h Cat H IC50. As to the method:
(§1) All assays for cathepsin K were carried out with human and rat recombinant enzyme. Assays for cathepsins S ? V were also carried out with human recombinant enzyme. Assays for human cathepsins B, H, and L were carried out with enzyme, purchased from Athens Research and Technology, Inc., prepared from human liver tissue. Standard assay conditions for the determination of kinetic constants used a fluorogenic peptide substrate, typically (5S,8S)-13-amino-5-benzyl-13-imino-3-methylene-N-(4-methyl-2-oxo-2H-chromen-7-yl)-6-oxo-1-phenyl-2-oxa-4,7,12triazatridecane-8-carboxamide (Cbz-Phe-Arg-AMC), and were determined in 100 mM sodium acetate at pH 5.5 containing 10 mM dithiothreitol and 120 mM sodium chloride. […]
(§2) All assays contained 10% dimethyl sulfoxide. […] Product fluorescence (excitation at 360 nm; emission at 440 nm, (except cathepsin H which used excitation at 340 nm; emission at 420 nm)) was monitored with a PerSeptive Biosystems Cytofluor II fluorescence plate reader. […]
(§3) Potential inhibitors were evaluated using the progress curve method. […] For those compounds whose progress curves were linear, the enzymatic activity (RATE) was plotted against the concentration of test compound, including inhibitor concentration of zero ([I]=0), and the IC50 determined from a fit of equation 1 to the data, RATE=Vmax/(1+([I]/IC50)) (1) where Vmax is the best fit estimate of the maximal enzymatic activity. […]

The target in another experiment is T1, rat cathepsin K (Rattus norvegicus, UniProt O35186).
T1 construct: The proform of cathepsin K was converted to mature cathepsin K by brief exposure to pH 4; made in house; host or cells: baculovirus; Trichoplusia ni High Five cells (virus raised in Sf-9)
T1 sequence (O35186 115-329): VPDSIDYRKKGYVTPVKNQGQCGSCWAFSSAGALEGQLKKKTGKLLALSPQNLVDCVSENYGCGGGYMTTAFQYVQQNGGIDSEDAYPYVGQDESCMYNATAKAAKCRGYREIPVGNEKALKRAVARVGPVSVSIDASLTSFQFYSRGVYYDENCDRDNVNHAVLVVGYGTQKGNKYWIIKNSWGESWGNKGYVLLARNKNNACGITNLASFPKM
As to the kind of experiment: Cathepsin K inhibition assay, rat recombinant enzyme, fluorogenic substrate Cbz-Phe-Arg-AMC. The following applies: Table 2, rat cathepsin K; read-out: r Cat K IC50. As to the method:
as §1, §2
Protein Purification: Media (human and rat) were filtered through a Whatman 3 filter, and then loaded onto a 25 mL. […] The column was washed until the absorbance reached the baseline value, and then the protein was eluted with a linear gradient from 0-2 M sodium chloride in the equilibration buffer. Column fractions were analyzed by SDS-PAGE, N-terminal sequencing, and mass spectrometry. […]

In a further experiment the target is human cathepsin L (Homo sapiens, UniProt P07711). As to the kind of experiment: Cathepsin L inhibition assay, enzyme from human liver tissue, Cbz-Phe-Arg-AMC. The settings on record: Table 2, human cathepsin L; read-out: h Cat L IC50. As to the method: as §1, §2, §3
The target in a further experiment is human cathepsin B (Homo sapiens, UniProt P07858). As to the kind of experiment: Cathepsin B inhibition assay, enzyme from human liver tissue, Cbz-Phe-Arg-AMC. The settings on record: Table 2, human cathepsin B; read-out: h Cat B IC50. As to the method:
as §1, §2, §3

Sequence of human cathepsin H (P09668 116-335 limits assumed, other chains not shown): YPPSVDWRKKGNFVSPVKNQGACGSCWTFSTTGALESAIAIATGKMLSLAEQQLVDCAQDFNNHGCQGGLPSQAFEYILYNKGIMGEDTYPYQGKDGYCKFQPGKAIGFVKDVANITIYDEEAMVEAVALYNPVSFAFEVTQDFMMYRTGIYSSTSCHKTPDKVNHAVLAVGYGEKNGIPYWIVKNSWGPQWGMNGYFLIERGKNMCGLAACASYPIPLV
Sequence of human cathepsin L (P07711 114-333): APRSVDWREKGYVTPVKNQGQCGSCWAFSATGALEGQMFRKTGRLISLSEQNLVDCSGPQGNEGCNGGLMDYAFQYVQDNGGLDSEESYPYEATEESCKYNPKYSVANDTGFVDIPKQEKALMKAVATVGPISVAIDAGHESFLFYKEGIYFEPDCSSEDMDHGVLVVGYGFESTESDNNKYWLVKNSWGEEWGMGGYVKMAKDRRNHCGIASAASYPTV

In the case of `CCCC[C@H](NC(=O)O[C@@H]1CN(C(=O)Nc2ccc(C(F)(F)F)cc2)CC1(C)C)C(=O)C(=O)Nc1ccn[nH]1` [Example 71, (3S)-4,4-dimethyl-1-{[4-(trifluoromethyl)anilino]carbonyl}pyrrolidinyl (1S)-1-[oxo(1H-pyrazol-5-ylamino)acetyl]pentylcarbamate], the 50% inhibitory concentration (IC50) – broadly, the concentration that inhibits the measured activity by half – on human cathepsin H was 0.1 to 1 µM; on rat cathepsin K, 0.01 to 0.1 µM; on human cathepsin L, 0.1 to 1 µM; on human cathepsin B, 0.1 to 1 µM.

Consider `CCCC[C@H](NC(=O)O[C@@H]1CN(c2nnc(C(F)(F)F)s2)CC1(C)C)C(=O)C(=O)Nc1ccn[nH]1` [Example 82, (3S)-4,4-Dimethyl-1-[5-(trifluoromethyl)-1,3,4-thiadiazol-2-yl]pyrrolidinyl-(1S)-1-[oxo(1H-pyrazol-5-ylamino)acetyl]pentylcarbamate], for which the IC50 at human cathepsin H lay in the range of 0.1 to 1 µM; at rat cathepsin K it was 0.01 to 0.1 µM; at human cathepsin L, 0.1 to 1 µM; on human cathepsin B it was 0.1 to 1 µM.
